Measured values taken from patent US10668090B2, “Liver specific delivery-based antiviral prodrug nucleoside cyclophosphate compound and uses thereof” (ZHEJIANG PALO ALTO PHARMACEUTICALS, INC, priority 2016, dated 2020).
Structures can show the parent of a compound that is named as a salt. Where two headings read alike, the source gives them in different places.

Assays:
[1] = Formation of active molecules by in vitro metabolism with human liver microsomes; assay type: in vitro ADME; settings: 25 μM, pH 7.4
Experimental: Human liver microsomes used herein were purchased from In Vitro Technologies (IVT) Inc., Batch No.: SSP X008070, a mixed liver microsome extracted from the liver tissues of 150 donors. The metabolic activity of CYP3A4 in the liver microsomes of this batch was recorded in the product description to be 1.734 nmol/mg/min (a rate of metabolizing testosterone into […]). The test compounds were synthesized by Zhejiang Paloalto Pharmaceutical Technology Co., Ltd., and dissolved in methanol to produce a 25 mM stock solution. The enzymatic reaction was carried out in 100 μL of a reaction solution (100 mM Tris-HCl, 5 mM MgCl2, pH 7.4) at a test compound concentration of 25 μM and a human liver microsome concentration of 2 mg/mL, and NADPH was added to start the reaction (with a final concentration of 2 mM). After the reaction was performed in a constant temperature shaking water bath for 5 minutes, acetonitrile was quickly added to terminate the reaction at 1.5 times the volume of the reaction mixture. The collected samples were centrifuged at a maximum speed of 13,600 rpm for 20 minutes using an Eppendorf table top centrifuge. The supernatant was collected and dried with a nitrogen evaporator, and then redissolved with mobile phase A, which was an aqueous solution containing 5 mM of ammonium acetate and 0.05% formic acid by volume. The resulting solution was subjected to quantitative analysis using LS-MS/MS (Waters, Acquity UPLC HSS T3 column).

[2] = Experimental: Male SD rats weighing 180-300 g were provided by Shanghai Sippr-BK Laboratory Animals Co., Ltd. Male animals were adapted to the environment for more than 3 days and fasted for 12 hours but without water deprivation at the night before the experiment. PA1010 (compound 4-cis), PA1007 (compound 6-cis), TAF and TDF were respectively dissolved in a normal saline to prepare their corresponding solutions. Before the administration, the animal's body weight was checked whether it met the experimental requirements. 12 rats were selected for grouping, 2 rats in each group, and were intragastrically administered with a drug solution at 30 mg/kg. Rats were euthanized with carbon dioxide gas at 0.5, 1, 3, 6, 12 and 24 h, respectively. Blood samples were collected from the heart and stored in a heparin anticoagulation tube. Then the samples were centrifuged at 4° C. and 6,000 rpm for 5 minutes, and the plasma supernatant was stored in ice. The kidney and liver tissues of the rats were collected and rinsed with normal saline pre-cooled at 4° C., and then stored in ice after water was drained. After the experiment, the samples were stored at −80° C. in a refrigerator.
The kidney and liver tissues were disrupted and mixed thoroughly in normal saline 5 times the volume of the kidney and liver tissues to obtain a tissue homogenate sample. 100 μL of the rat plasma or tissue homogenate sample was mixed uniformly with 100 μL of 10% trichloroacetic acid precipitant containing 50 ng/mL of adefovir (internal standard) and the solvent thereof was prepared by methanol and acetonitrile in a volume ratio of 50:50. The mixture was centrifuged at 4° C. and 6000 rpm for 5 minutes, and all supernatant was treated with a SPE microextraction plate (MCX μElution Plate 30 μm, Waters). Finally, the microextraction plate was eluted with a methanol solution containing 5% ammonia, and 75 μL of the obtained eluent was transferred to a 384-well sample plate for analysis with an injection volume of 1 μL.
LC-MS/MS-AJ (Triple Quad 5500, AB SCIEX) was used for sample analysis. The chromatographic conditions were shown as follows: chromatographic column: Acquity UPLC HSS T3 (2.1×50 mm, 1.8 μm); column temperature: 40° C.; flow rate: 0.5 mL/min; mobile phase A: 0.1% formic acid aqueous solution and mobile phase B: an acetonitrile solution. The mass spectrometry conditions corresponding to the internal standard were shown as follows: electrospray ionization (ESI): positive ion mode; ion pair m/z monitored by multiple reaction monitoring (MRM): 288/176 (PMPA), 274/162 (PMEA); capillary voltage: 3.0 kV; temperature: 500° C.; desolvation gas flow: 1000 L/h; scanning time: 0.025 seconds; and collision energy: 25 V.
Bar charts of the concentration of PMPA in plasma, liver and kidney corresponding to time were respectively plotted. The area (AUC0-t) under the tissue concentration-time curve of PMPA was fitted using the log-linear trapezoidal method in a non-compartmental model of WinNonLin 6.2.1 (Pharsight, CA). The ratios of liver to kidney and liver to plasma of PMPA were obtained by calculating the ratio of their corresponding AUC0-t.

[3] = male, SD, rat, in vivo, po, 30 mg/kg
[4] = rats, intragastric 30 mg/kg, 0.5-24 h, kidney
[5] = rats, intragastric 30 mg/kg, 0.5-24 h
[6] = rats, intragastric 30 mg/kg, 0.5-24 h, plasma

SMILES	Average rate of PMPA production in 5 minutes [1]	Exposure (AUC0-t) of the active molecule PMPA in kidney [2, 4]	Exposure (AUC0-t) of the active molecule PMPA in liver [2, 5]	Exposure (AUC0-t) of the active molecule PMPA in plasma [2, 6]	other results
C[C@H](Cn1cnc2c(N)ncnc21)OCP1(=O)OCC[C@@H](c2cccc(Cl)c2F)O1 (mixture of isomers) [Compound 1, (2R)-9-{2-[(4S)-4-(3-chloro-2-fluorophenyl)-2-oxo-1,3,2-dioxaphosphorinan-2-yl]methoxypropyl}adenine]	33.8 pmol/min/mg HLM				
C[C@H](Cn1cnc2c(N)ncnc21)OCP1(=O)OCC[C@@H](c2cc(F)cc(Cl)c2)O1 (mixture of isomers) [Compound 2, (2R)-9-{2-[(4S)-4-(3-chloro-5-fluorophenyl)-2-oxo-1,3,2-dioxaphosphorinan-2-yl]methoxypropyl}adenine]	46.8 pmol/min/mg HLM				
C[C@H](Cn1cnc2c(N)ncnc21)OCP1(=O)OCC[C@@H](c2ccc(F)c(Cl)c2)O1 (mixture of isomers) [Compound 3, (2R)-9-{2-[(4S)-4-(3-chloro-4-fluorophenyl)-2-oxo-1,3,2-dioxaphosphorinan-2-yl]methoxypropyl}adenine]	22.2 pmol/min/mg HLM				
C[C@H](Cn1cnc2c(N)ncnc21)OCP1(=O)OCC[C@@H](c2cccc(Cl)c2)O1 (mixture of isomers) [Compound 7, (2R)-9-{2-[(4S)-4-(3-chlorophenyl)-2-oxo-1,3,2-dioxaphosphorinan-2-yl]methoxypropyl}adenine, reference compound]	27.5 pmol/min/mg HLM				
C[C@H](Cn1cnc2c(N)ncnc21)OC[P@@]1(=O)OCC[C@@H](c2cc(Cl)ccc2F)O1 [Compound 4-cis, (2R)-9-{2-[(2R, 4S)-4-(5-chloro-2-fluorophenyl)-2-oxo-1,3,2-dioxaphosphorinan-2-yl]methoxypropyl}adenine]					exposure level of PMPA in the liver, times that released from TAF ([2]; male, SD, rat, in vivo): 1.5 times; exposure level of PMPA in the liver, times that released from TDF ([2]; male, SD, rat, in vivo): 2.9 times; Liver-kidney Ratio of PMPA AUC0-t [2, 3]: 1.0; Liver-plasma Ratio of PMPA AUC0-t [2, 3]: 51.4; PMPA level in liver tissues compared with TAF and TDF at the corresponding time points ([2]; rat, in vivo): significantly higher; exposure level of PMPA in the kidney compared with TAF and TDF ([2]; rat, in vivo): significantly lower; Exposure (AUC0-t) of the active molecule PMPA in kidney ([2]; rat, in vivo, po, 30 mg/kg): 234298 ng·h/g; Exposure (AUC0-t) of the active molecule PMPA in plasma ([2]; rat, in vivo, po, 30 mg/kg): 4332 ng·h/g
C[C@H](Cn1cnc2c(N)ncnc21)OC[P@@]1(=O)OCC[C@@H](c2cc(F)cc(Cl)c2)O1 [Compound 6-cis, (2R)-9-{2-[(2R, 4S)-4-(3-chloro-5-fluorophenyl)-2-oxo-1,3,2-dioxaphosphorinan-2-yl]methoxypropyl}adenine]	75.8 pmol/min/mg HLM	65393 ng·h/g	76075 ng·h/g	1272 ng·h/g	exposure level of PMPA in the kidney compared with TAF and TDF ([2]; rats, intragastric 30 mg/kg): significantly lower
CC(C)OC(=O)[C@H](C)N[P@](=O)(CO[C@H](C)Cn1cnc2c(N)ncnc21)Oc1ccccc1 [TAF, tenofovir alafenamide, reference compound]		297233 ng·h/g	148407 ng·h/g	4892 ng·h/g	
CC(C)OC(=O)OCOP(=O)(CO[C@H](C)Cn1cnc2c(N)ncnc21)OCOC(=O)OC(C)C [TDF, tenofovir disoproxil fumarate, reference compound]		319562 ng·h/g	78050 ng·h/g	3097 ng·h/g	
